In ChEMBL document CHEMBL3392922, “MMV box screening in the Dd2 P. falciparum strain”:

What follows are compounds tested on Plasmodium falciparum (assay: MMV: IC50 determined against P. falciparum Dd2-luc strain using a Malaria Sybr Green I Fluorescence assay. Starting conditions were 1% trophozoite synchronised parasites at 2% haematocrit. Fluorescence detection completed after 48hr incubation at 37 degrees C under 1% O2, 3% CO2 and balance N2.). Conditions: Dd2, 48 h.
Type: functional, organism-based

SMILES | IC50 [nM]
FC(F)(F)c1cccc(CNC2CCN(CCc3ccccc3)CC2)c1 | 490
Oc1ccc(Cl)cc1CNc1nc2ccccc2[nH]1 | 1000
CCOc1cc(Cl)c(C(C)NC(=O)c2ccccc2)cc1OCC (stereo not drawn) | 828
C=CC12CCN(CC1)C(C(O)c1ccnc3ccc(OC)cc13)C2 (stereo not drawn) | 418
O=C(c1ccccc1F)N(Cc1ccc(Cl)cc1)c1ccccn1 | 1190
COCCn1c(C)nc2ccccc2c1=O | 930
O=C(Nc1cccc(-c2nc3ccccc3[nH]2)c1)c1cccc(NC(=O)c2ccco2)c1 | 506
COc1ccc(C(=O)Nc2ccc(Cl)cc2C(=O)Nc2ccncc2)cc1 | 810
O=C(Nc1ccc(CN2CCOCC2)cc1)c1ccc(-c2ccc(Br)cc2)o1 | 958
COc1ccccc1CNC(=O)CCn1c(=O)[nH]c2ccccc2c1=O | 518
OC(Cn1nnc2ccccc21)Cn1c2ccc(Br)cc2c2cc(Br)ccc21 (stereo not drawn) | 2030
O=C(Nc1ccc(Cl)cc1)N1CCN(c2ccc3nncn3n2)CC1 | 1040
CN(C)c1ccc(-c2nc3cc(N)ccc3[nH]2)cc1 | 1240
Cc1ccc2cc3c(N)c4c(C)ccc(C)c4nc3nc2c1 | 1440
COc1ccccc1C(=O)ON=C(N)Cc1cccc2ccccc12 | 4020
O=C(CSc1ccc2nnc(-c3cccc(F)c3)n2n1)Nc1ccc2c(c1)OCO2 | 541
CCCCNCC(O)(c1ccc(Cl)cc1)c1ccc(Cl)cc1 | 420
CCCC(c1nnnn1C1CCCCC1)N1CCN(C(=O)c2ccco2)CC1 (stereo not drawn) | 518
COc1cc(C(=O)ON=C(N)Cc2cccc3ccccc23)cc(OC)c1OC | 3940
CCCc1cc(O)c2c3c(c(=O)oc2c1)CN(C)CC3 | 2570

SMILES | IC50 [nM]
CC(C)(C)C(=O)Nc1ccc(C(=O)Nc2cccc(-c3nc4ccccc4[nH]3)c2)cc1 | 753
COc1ccc(-c2nonc2NC(=O)c2cccc(C)c2)cc1OC | 904
Cc1ccc(CN2CCC(C(=O)Nc3ccc(-c4cc5ccccc5[nH]4)cc3)CC2)o1 | 459
OC(CNC1CCCCC1)Cn1c2ccc(I)cc2c2cc(I)ccc21 (stereo not drawn) | 436
CCn1c(SCC(=O)Nc2cc(C(F)(F)F)ccc2Cl)nc2ccccc2c1=O | 903
O=C(Nc1ccsc1C(=O)NC1CCCCC1)c1ccc(F)cc1 | 1040
O=C(Nc1ccc(Cl)cc1C(=O)Nc1ccncc1)c1ccc(Cl)cc1Cl | 866
O=C(Nc1cccc(C(F)(F)F)c1)c1cc(Cl)ccc1O | 1090
CCc1ccc(CNCC(O)c2ccccc2)cc1 (stereo not drawn) | 1870
CCOc1ccc(-c2nonc2NC(=O)c2cccc(C)c2)cc1OCC | 154
COc1ccc(C2N(C)c3ccccc3N2C)cc1 | 1100
COc1cccc(C(=O)NC(c2ccc(C)cc2)c2cc(Cl)c3cccnc3c2O)c1 (stereo not drawn) | 940
COc1ccc2c(=O)cc(C(Cl)(Cl)Cl)oc2c1 | 958
CC(C)(C)CC(C)(C)NCC(O)COc1ccc2c(c1)CCC2 (stereo not drawn) | 1760
CCOc1ccc(/C=C/c2nc(=O)c3ccccc3o2)cc1 | 740
O=C(Nc1ccccc1O)c1ccc(-c2ccc(Cl)cc2Cl)o1 | 2990
O=C(Nc1nc(-c2ccccn2)cs1)c1ccccc1Br | 1610
O=C(Nc1ccc(F)c(Cl)c1)Nc1ccc(Cl)c(Cl)c1 | 1830
CCOC(=O)C1(Cc2ccccc2)CCN(Cc2cccc(OC)c2O)CC1 | 2200
Oc1ccc(C(=C(Cl)Cl)c2ccc(O)cc2)cc1 | 1910

SMILES | IC50 [nM]
CCOc1ccc(-c2nc(NC(=O)c3cccc(S(C)(=O)=O)c3)sc2C)cc1 | 1440
COc1ccc(C(=O)NC(c2ccccc2Cl)c2cc(Cl)c3cccnc3c2O)cc1 (stereo not drawn) | 978
COc1ccc(CN2CCN(Cc3ccccc3)CC2)c(O)c1 | 1140
CCCCCCc1cc(O)c2c3c(c(=O)oc2c1)CCC(C)C3 (stereo not drawn) | 568
COc1ccccc1N1CCN(C(CNS(=O)(=O)c2ccc(Cl)cc2)c2cccnc2)CC1 (stereo not drawn) | 913
Oc1ccc(Br)cc1CN1CCN(Cc2ccc(Cl)cc2)CC1 | 1520
CCCc1c(C)nc2ccccc2c1O | 637
CC1=C(CC(=O)c2cccc([N+](=O)[O-])c2)C(=O)c2ccccc2C1=O | 129
CCCCCCc1cc2cc(-c3nc4ccccc4[nH]3)c(=Nc3ccccc3C)oc2cc1O | 5720
CCOc1c(Cl)cc(CNC(C)C(O)c2ccccc2)cc1OC (stereo not drawn) | 1360
COc1ccc(C(=O)C2CC2c2ccc(Cl)cc2)cc1 (stereo not drawn) | 3290
CCN(CC)CCCNc1nc(-c2ccc(Cl)cc2)nc2ccccc12 | 425
O=c1c2c([nH]c3ccccc13)CCCC2 | 876
CN1c2ccccc2N(C)C1c1ccc2c(c1)OCO2 | 1150
CC1CC2=C(CC1CNCCCN(C)C)C(C)(C)CCC2 (stereo not drawn) | 476
O=C(NCC1Cc2cccc(-c3ccncc3)c2O1)c1csc2c1CCCC2 (stereo not drawn) | 1690
Cc1c(C)n(CC(O)CNC2CCCCC2C)c2ccccc12 (stereo not drawn) | 484
C=C(C)CCC(C)N1CCC(N2CCC(C(=O)NCCc3ccccc3)CC2)CC1 (stereo not drawn) | 1460
